Data set [1] can be described thus: Peptide tissue permeability, Ussing chamber with rat colonic tissue. Type of data set: in vitro ADME. Conditions: for original dose detected in the basolateral chamber / original dose detected within the colonic tissue: at 2 h; for Papp at 2 h, 1 mg/mL: pH 7.4, 2 h (120 min). How it is done: Peptide permeability studies were conducted using the NaviCyte Vertical Ussing chamber model (Harvard Apparatus, Cambridge, UK). Amounts of 250–300 g adult male Wistar rats (n = 3) were selected and sacrificed, in accordance with the accepted ethical standards of the National Research Ethics Service (ethical approval number 21/WA/0388). The rat colonic tissues were excised, processed to remove luminal contents and gently washed with Krebs-Ringer Bicarbonate (KBR) buffer (pH 7.4). Each colonic tissue was mounted on an Ussing chamber with the mucosal side facing the apical chamber. The tissue was allowed to acclimatise in the KBR buffer for 20 min. Transepithelial electrical resistance (TEER) across the tissue was measured using an EVOM^TM voltameter (World Precision Instruments, Inc., Hertfordshire, UK) and Ag/AgCl electrodes (Harvard Apparatus, Cambridge, UK). TEER values were measured to ensure the tissue integrity was maintained (≥200 Ω cm^2). The native oxytocin and oxytocin variants at 1 mg/mL concentrations were added to the apical chamber to measure peptide permeation into the tissue and into the basal chamber. Each peptide was tested twice using tissue from the three rats to account for any inter-animal variability. The Ussing chambers were continuously pumped with a supply of carbogen (95% oxygen/5% carbon dioxide) and maintained at 37 °C. An amount of 100 µL samples were taken from the basal side at 1 and 2 h timepoints. At 2 h, the tissues were collected, quenched with 6.25 µL methanol/mg tissue, sectioned with scissors, sonicated for 5 min and centrifuged for 10 min (4 °C, 16,900 RCF), with the supernatant used for peptide quantification. The amount of peptide within the basal chamber and tissue samples was measured with the HPLC method described in Section 3.3 and presented as the percentage of the peptide dose originally applied to the apical chamber. The apparent permeability (Papp) of peptides was calculated using Equation (1):(1) […]
Equation (1): Apparent permeability (Papp) of peptides across the rat colonic tissue was calculated using the peptide flux (µg/s, dQ/dt), the surface area of the tissue (cm^2) and the initial peptide concentration in the apical chamber (C0).

The nature of data set [2]: Peptide stability in a human colon model (pooled human faecal slurry, anaerobic). The format is in vitro ADME. Conditions: for higher stability than linear P1: at 30 min, relative to P1 (totally degraded); for Degradation rate constant / half-life at 1 mg/mL: fitted to exponential (one-phase, first-order) decay model; for Degradation rate constant: plateau 0.0; for remaining at 1.5 h, 1 mg/mL: after 1.5 h incubation, n = 3, read-out: peptide remaining intact (of starting concentration); for time interval in which entirely depleted: footnote to Table S1. How it is done:
The human colon model (HCM) was prepared to mimic in vivo colonic conditions and maintain microbial viability. Fresh human faecal material was provided voluntarily from 3 healthy individuals who had not taken antibiotics for at least 6 months. Approval for the collection and use of human faecal material was obtained from the National Research Ethics Service (NRES) of Royal Free Hospital Biobank (reference number NC2017.010). Faecal material from the 3 donors was pooled and then diluted within an anaerobic workstation (37 °C, 70% relative humidity) (Elektrotek, Yorkshire, United Kingdom), using an in-house basal growth media to prepare 12.5% or 25% faecal slurries. These slurry concentrations have been used to measure the colonic stability of several drugs and exceed the minimum concentrations required for biorelevant bacterial activity. The samples were homogenised before being sieved (SefarNitex™, pore size 350 µm) to remove fibrous material. Faecal slurry was frozen at −80 °C in aliquots and thawed immediately prior to use.
Peptide stability studies were conducted within the anaerobic workstation (Elektrotek, Yorkshire, United Kingdom). An amount of 2 mg/mL stock solutions of oxytocin and oxytocin variants were prepared and added to HCM at a 1:1 ratio, leading to 1 mg/mL incubation concentrations (n = 3 for each peptide). Incubation vials were placed on a 100 RPM shaker and 50 µL samples were withdrawn at specific time intervals (0, 0.5, 1 and 1.5 h) and immediately quenched with 50 µL methanol (1:1) to terminate protease activity. Samples were centrifuged at 16,900 RCF for 10 min at 4 °C, and the supernatant was collected for peptide quantification with a 1260 II Series™ HPLC system (Agilent Technologies, Cheadle, UK). A Luna C18 (5 µm, 100 Å, 150 × 4.6 mm) HPLC column was used with a 1.0 mL/min flow rate, an injection volume of 20 µL and mobile phases of 0.1% TFA in water and ACN, with varying gradients for optimised individual peptide quantification to prevent overlap with endogenous components of the HCM.
All results are presented as mean ± standard deviation and subjected to statistical analysis using GraphPad Prism 9 (GraphPad by Dotmatics). Two-way ANOVA with Dunnett’s multiple comparison test was performed to determine statistical significance between peptides and native oxytocin at multiple timepoints. Results were deemed significant where p < 0.05. The physicochemical properties of peptides were estimated using RDKit (version 2021.09.4) in Python (version 3.6.15) via Jupyter Notebook (version 6.3.0) using the peptides’ isomeric SMILES. The Tanimoto similarities of the peptide variants’ molecular structure to native oxytocin was calculated using chemical fingerprints (ECFP6, radius 3, 2048 bits) RDKit (version 2022.9.1) with Python (version 3.7.0) via Google Colaboratory. Chemical similarity maps were generated using RDKit based on bit-vector fingerprints (chirality = true, radius 3, 2048 bits) and Tanimoto similarity. The degradation profiles of peptides were fitted to an exponential decay model in GraphPad Prism 9. A nonlinear regression (one-phase decay, also known as first-order decay) curve was fitted to the peptide stability data with a plateau constraint of 0.0.

[3] abbreviates: human, human colon model (pooled human faecal slurry, anaerobic), HCM.
Setting [4] is: human, human colon model (HCM), pooled human faecal slurry.
The mark [5] stands for this setting: male, Wistar, 1 mg/mL apical, read-out: apparent permeability (Papp).

Bridge positions count the residues as written; N and C are the ends. Square brackets hold non-standard residues; d marks the D form. Ends that are not written are not given here. Peptide text beside a SMILES is read from it.

The half-life is the time in which the quantity being followed falls by half. Low values mean rapid decline, high ones slow decline. In general, Papp refers to the rate of passage across a membrane or cell layer, normalised by area and donor concentration.

For `CC[C@H](C)[C@@H]1NC(=O)[C@H](Cc2ccc(O)cc2)NC(=O)[C@@H](N)CSSC[C@@H](C(=O)N2CCC[C@H]2C(=O)N[C@@H](CC(C)C)C(=O)NCC(N)=O)NC(=O)[C@H](CC(N)=O)NC(=O)[C@H](CCC(N)=O)NC1=O` [Oxytocin, oxytocin, reference compound], in data set [1], the “original dose detected in the basolateral chamber” value was “not detected” and the “original dose detected within the colonic tissue” value is on record as “not detected”. In addition, in data set [2] (HCM), the “higher stability than linear P1” value was found to be 47.3 ± 1.98% and the Degradation rate constant is 1.62 h⁻¹. For the same molecule, the remaining at 1.5 h, 1 mg/mL in data set [2] (setting [3]) was determined as 6 ± 1.36%. The molecule further had a half-life at 1 mg/mL in data set [2] (human, HCM) of 25.7 min.
`CC[C@H](C)[C@@H]1NC(=O)[C@H](Cc2ccc(O)cc2)NC(=O)[C@@H](NC(C)=O)CSSC[C@@H](C(=O)N2CCC[C@H]2C(=O)N[C@@H](CC(C)C)C(=O)NCC(N)=O)NC(=O)[C@H](CC(N)=O)NC(=O)[C@H](CCC(N)=O)NC1=O` [Peptide P2]: in data set [2] (HCM), the Degradation rate constant came to 3.17 h⁻¹. The molecule also had a half-life at 1 mg/mL in data set [2] (setting [4]) of 13.1 min. In data set [2] (human, human colon model (pooled human faecal slurry, anaerobic), HCM, after 1.5 h, read-out: peptide degraded by the HCM), the metabolised at 1.5 h, 1 mg/mL worked out at 97.2 ± 0.84%.
On to `CC[C@H](C)[C@@H]1NC(=O)[C@H](Cc2ccc(O)cc2)NC(=O)[C@H](C)NC(=O)CSC[C@@H](C(=O)N2CCC[C@H]2C(=O)N[C@@H](CC(C)C)C(=O)NCC(N)=O)NC(=O)[C@H](CC(N)=O)NC(=O)[C@H](CCC(N)=O)NC1=O` [Peptide P3] ({CH2CO}-AYIQNCPLG-NH2; thioether N-6), for which the Degradation rate constant in data set [2] (HCM) was 0.688 h⁻¹. In data set [2] (setting [4]), this molecule had a half-life at 1 mg/mL of 60.4 min. Moreover, the remaining at 1.5 h, 1 mg/mL in data set [2] (setting [3]) amounted to 34.4 ± 0.61%.
Take `CC[C@@H](C)[C@H]1NC(=O)[C@@H](Cc2ccc(O)cc2)NC(=O)[C@@H](N)CSSC[C@@H](C(=O)N2CCC[C@H]2C(=O)N[C@H](CC(C)C)C(=O)NCC(N)=O)NC(=O)[C@H](CC(N)=O)NC(=O)[C@H](CCC(N)=O)NC1=O` [Peptide P4]: in data set [1], the “original dose detected in the basolateral chamber” value turned out to be 6.85 ± 2.05% and the “original dose detected within the colonic tissue” value came out at 3.0 ± 0.85%. For the same molecule, the Papp at 1 h, 1 mg/mL in data set [1] (male, Wistar, pH 7.4, 1 h (60 min), 1 mg/mL apical, read-out: apparent permeability (Papp)) is 57 ×10⁻⁶ cm/s. In data set [1] (setting [5]), the Papp at 2 h, 1 mg/mL was determined as 206 ×10⁻⁶ cm/s. In data set [2] (HCM), the “higher stability than linear P1” value turned out to be 90.3 ± 1.57% and the Degradation rate constant is 0.108 h⁻¹. The molecule further had a half-life at 1 mg/mL in data set [2] (setting [4]) of 385 min. Moreover, in data set [2] (setting [3]), the remaining at 1.5 h, 1 mg/mL came out at 85.1 ± 0.21%.
`CC[C@@H](C)[C@H]1NC(=O)[C@@H](Cc2ccc(O)cc2)NC(=O)[C@H](C)NC(=O)CSC[C@@H](C(=O)N2CCC[C@H]2C(=O)N[C@H](CC(C)C)C(=O)NCC(N)=O)NC(=O)[C@H](CC(N)=O)NC(=O)[C@H](CCC(N)=O)NC1=O` [Peptide P5] ({CH2CO}-A[dY][dI]QNCP[dL]G-NH2; thioether N-6) returned a Degradation rate constant in data set [2] (HCM) of 0.0322 h⁻¹. Also, in data set [2] (setting [4]), the half-life at 1 mg/mL is 1290 min. For the same molecule, in data set [2] (setting [3]), the remaining at 1.5 h, 1 mg/mL was found to be 95.2 ± 3.14%.
Turning to `CC[C@H](C)[C@@H]1NC(=O)[C@H](Cc2ccc(O)cc2)NC(=O)[C@@H](N)CSCc2cccc(c2)CSC[C@@H](C(=O)N2CCC[C@H]2C(=O)N[C@@H](CC(C)C)C(=O)NCC(N)=O)NC(=O)[C@H](CC(N)=O)NC(=O)[C@H](CCC(N)=O)NC1=O` [Peptide P6], in data set [2] (HCM), the “time to 100% degradation” value is reported as “less than 1 h” and the Degradation rate constant was found to be 5.39 h⁻¹. In addition, in data set [2] (setting [4]), the half-life at 1 mg/mL is 7.71 min.
Regarding `CC[C@H](C)[C@@H]1NC(=O)[C@H](Cc2ccc(O)cc2)NC(=O)[C@@H](N)CSSC[C@@H](C(=O)N2CCC[C@H]2C(=O)N[C@H](CC(C)C)C(=O)NCC(N)=O)NC(=O)[C@H](CC(N)=O)NC(=O)[C@H](CCC(N)=O)NC1=O` [Peptide P7], the Degradation rate constant in data set [2] (HCM) came to 1.05 h⁻¹. The molecule also showed a half-life at 1 mg/mL in data set [2] (setting [4]) of 39.6 min. Moreover, the remaining at 1.5 h, 1 mg/mL in data set [2] (setting [3]) is 22.3 ± 0.85%.
Regarding `CC[C@@H](C)[C@H]1NC(=O)[C@@H](Cc2ccc(O)cc2)NC(=O)[C@@H](N)CSSC[C@@H](C(=O)N2CCC[C@H]2C(=O)N[C@@H](CC(C)C)C(=O)NCC(N)=O)NC(=O)[C@H](CC(N)=O)NC(=O)[C@H](CCC(N)=O)NC1=O` [Peptide P8], in data set [2] (HCM), the Degradation rate constant was 2.33 h⁻¹. This molecule also showed a half-life at 1 mg/mL in data set [2] (setting [4]) of 17.8 min. Moreover, in data set [2] (setting [3]), the remaining at 1.5 h, 1 mg/mL came to 3.7 ± 0.43%.
On to `CC[C@H](C)[C@H](NC(=O)[C@H](Cc1ccc(O)cc1)NC(=O)[C@H](C)N)C(=O)N[C@@H](CCC(N)=O)C(=O)N[C@@H](CC(N)=O)C(=O)N[C@@H](C)C(=O)N1CCC[C@H]1C(=O)N[C@H](CC(C)C)C(=O)NCC(N)=O` [Peptide P9] (H-AYIQNAP[dL]G-NH2), for which, in data set [2] (HCM), the “time to total degradation” value is “less than 30 min” and the “time interval in which entirely depleted” value was 0.0 to 0.5 h.
With `CC[C@@H](C)[C@@H](NC(=O)[C@@H](Cc1ccc(O)cc1)NC(=O)[C@H](C)N)C(=O)N[C@@H](CCC(N)=O)C(=O)N[C@@H](CC(N)=O)C(=O)N[C@@H](C)C(=O)N1CCC[C@H]1C(=O)N[C@@H](CC(C)C)C(=O)NCC(N)=O` [Peptide P10] (H-A[dY][dI]QNAPLG-NH2), the Degradation rate constant in data set [2] (HCM) came out at 2.05 h⁻¹. The molecule also gave a half-life at 1 mg/mL in data set [2] (setting [4]) of 20.3 min.
Consider `CC[C@@H](C)[C@@H](NC(=O)[C@@H](Cc1ccc(O)cc1)NC(=O)[C@H](C)N)C(=O)N[C@@H](CCC(N)=O)C(=O)N[C@@H](CC(N)=O)C(=O)N[C@@H](C)C(=O)N1CCC[C@H]1C(=O)N[C@H](CC(C)C)C(=O)NCC(N)=O` [Peptide P11] (H-A[dY][dI]QNAP[dL]G-NH2), for which the apparent permeability coefficient (Papp) at 2 h, 1 mg/mL in data set [1] (setting [5]) turned out to be 35.2 ×10⁻⁶ cm/s. Further, the Degradation rate constant in data set [2] (HCM) is 0.289 h⁻¹. Also, the half-life at 1 mg/mL in data set [2] (setting [4]) was 144 min. In data set [2] (setting [3]), the remaining at 1.5 h, 1 mg/mL turned out to be 64.2 ± 1.18%.
Turning to “P1: Linear form of oxytocin, the two cysteines replaced by alanines (AYIQNAPLG-NH2; ends and bridges not checked; UniProt P01178 20-28, looked up, variant C1A C6A) [Peptide P1]”, in data set [2] (HCM), the “time interval in which entirely depleted” value lay in the range of 0.0 to 0.5 h.

Values taken from PMC10384666, “Impact of Peptide Structure on Colonic Stability and Tissue Permeability” (Pharmaceutics, 2023).
